Assay results reported in patent publication US11993587B2, “Substituted pyrazolo-pyrazines and their use as GluN2B receptor modulators” (JANSSEN PHARMACEUTICA NV, priority 2019, dated 2024).

Target: T1, human GluN1/GluN2B NMDA receptors (Homo sapiens, UniProt Q13224)
T1 construct: expressed in transfected cells
Experiment: Cell-based calcium flux (FLIPR) assay on cloned human NR1/NR2B ion channels expressed in mammalian cells
Settings: standard assay, glutamate ~EC40 plus 10 μM glycine, cells expressing human GluN1/GluN2B
Procedure: Effects of Test Articles on Cloned Human NR1/NR2B Ion Channels Expressed in Mammalian Cells
NMDA receptors are ion channels that are highly permeable to Ca^2+ ions, rendering it possible to monitor NMDA receptor function using cell-based calcium flux assay. In this assay, co-agonists glutamate and glycine are added to cells heterologously expressing human GluN1/GluN2B NMDA receptors to initiate cellular Ca^2+ influx. The time course of the changes in intracellular calcium is measured using a fluorescent dye and a FLIPR (Fluorometric Imaging Plate Reader) device.
Twenty four hours before measurements, the expression of the NMDA receptors in the stable cell line is induced with Tet-On inducible system in the presence of a non-selective NMDA receptor blocker. […] After 1 h incubation at the room temperature, the dye is washed away with the assay buffer (137 mM NaCl (standard assay) or 150 mM (HTS assay), 4 mM KCl (standard assay) or 3 mM (HTS assay), 2 mM CaCl2), 0.01 mM EDTA, 10 mM HEPES and 5 mM D-glucose; pH 7.4) In the FLIPR TETRA reader, various concentrations of the test compounds are added to the cells for 5 min while fluorescence is monitored to detect potential agonist activity. […] The fluorescent signal in the presence of test compounds is quantified and normalized to the signal defined by the appropriate control wells.

T1 sequence (Q13224 27-1484, other chains not shown): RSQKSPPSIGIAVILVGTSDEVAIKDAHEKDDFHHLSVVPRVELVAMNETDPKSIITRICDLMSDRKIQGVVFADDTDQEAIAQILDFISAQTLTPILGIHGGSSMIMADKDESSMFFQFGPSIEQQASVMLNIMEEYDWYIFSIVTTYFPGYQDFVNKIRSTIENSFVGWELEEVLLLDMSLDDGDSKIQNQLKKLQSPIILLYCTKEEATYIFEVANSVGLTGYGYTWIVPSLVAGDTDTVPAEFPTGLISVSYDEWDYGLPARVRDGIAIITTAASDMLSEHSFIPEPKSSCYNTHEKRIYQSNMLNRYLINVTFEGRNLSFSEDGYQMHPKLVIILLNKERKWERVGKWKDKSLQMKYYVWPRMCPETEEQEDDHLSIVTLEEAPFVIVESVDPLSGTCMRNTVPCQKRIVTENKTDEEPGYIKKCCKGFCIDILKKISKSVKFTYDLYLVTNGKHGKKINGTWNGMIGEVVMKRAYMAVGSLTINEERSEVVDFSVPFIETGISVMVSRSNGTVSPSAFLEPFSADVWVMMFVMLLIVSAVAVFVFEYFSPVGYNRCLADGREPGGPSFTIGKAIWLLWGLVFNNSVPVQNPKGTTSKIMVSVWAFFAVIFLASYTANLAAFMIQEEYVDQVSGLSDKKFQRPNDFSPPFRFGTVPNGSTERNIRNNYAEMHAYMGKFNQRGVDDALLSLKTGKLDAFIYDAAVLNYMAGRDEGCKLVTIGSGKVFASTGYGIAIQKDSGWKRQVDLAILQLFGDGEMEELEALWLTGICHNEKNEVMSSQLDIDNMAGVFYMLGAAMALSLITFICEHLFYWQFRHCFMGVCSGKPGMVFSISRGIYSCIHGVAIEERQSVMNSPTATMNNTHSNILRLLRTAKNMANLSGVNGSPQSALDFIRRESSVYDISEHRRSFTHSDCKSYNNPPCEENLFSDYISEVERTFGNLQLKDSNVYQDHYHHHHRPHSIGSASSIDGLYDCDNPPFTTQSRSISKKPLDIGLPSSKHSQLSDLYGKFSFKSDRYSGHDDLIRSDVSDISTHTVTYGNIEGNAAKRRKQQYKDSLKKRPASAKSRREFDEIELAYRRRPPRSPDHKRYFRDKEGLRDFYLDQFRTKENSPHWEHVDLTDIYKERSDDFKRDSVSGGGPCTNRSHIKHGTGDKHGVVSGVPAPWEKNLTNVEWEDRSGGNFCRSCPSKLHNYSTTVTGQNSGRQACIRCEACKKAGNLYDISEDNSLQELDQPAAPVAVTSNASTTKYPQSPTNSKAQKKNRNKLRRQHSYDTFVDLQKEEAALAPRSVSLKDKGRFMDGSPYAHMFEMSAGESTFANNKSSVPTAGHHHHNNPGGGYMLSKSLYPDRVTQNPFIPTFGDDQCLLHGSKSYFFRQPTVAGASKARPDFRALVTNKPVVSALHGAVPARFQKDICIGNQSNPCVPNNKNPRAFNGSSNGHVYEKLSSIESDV

Question: For “2-[6-(4-Fluoro-3-methyl-phenyl)pyrazolo[3,4-b]pyrazin-1-yl]-N,N-dimethyl-acetamide [Example 7]”, which IC50 is on record?
Answer: Its IC50 is 117 nM.

Tested on: not listed separately
Experiment: Liver microsomal stability (extraction ratio)
Assay type: in vitro ADME
Settings: test compound 1 μM, 0.5 mg/mL liver microsomes, NADPH, 37° C.; species not stated (method: mouse, rat, and human)
Procedure: Protocol for Liver Microsomal Stability (Extraction Ratio)
Liver Microsomal Stability. Microsomal stability studies (Chrovian et al, “1H-Pyrrolo[3,2-b]pyridine GluN2B-Selective Negative Allosteric Modulators”. ACS Med Chem Lett. 2019 Jan. 10; 10(3):261-266) were conducted on a Biomek® FX Robotic Liquid Handling Workstation (Beckman Coulter, Brea, CA), which consists of a 96-channel pipette head, a 12-position workstation deck, and a plate incubator. Test compounds (1 μM) were spiked in a reaction mix consisting of 100 mM potassium phosphate buffer (pH 7.4), 3 mM MgCl2, and 0.5 mg/mL liver microsomes from mouse, rat, and human (BD Gentest). The reaction was brought to 37° C. and initiated by adding NADPH to a final concentration of 1 mM. After mixing on the plate deck, 50 μL aliquots were excised from the reaction plate at 0, 5, 10, 20, 40, and 60 min and quenched with four volumes of acetonitrile spiked with […] of the internal standard phenytoin. Quenched plates were centrifuged at 5700 rpm for 10 min at 4° C., and supernatant was diluted 1:3 in water before LC/MS/MS analysis. The compound half-lives were derived from plots of the ln of percent remaining compound over time to determine the intrinsic clearance. The predicted hepatic clearance was derived from the intrinsic clearance value using equations from the well-stirred model (Current Drug Metabolism, 2008, 9, 940-951), where no correction was made plasma protein binding and the blood to plasma concentration ratio was assumed to be one. The extraction ratio (ER) was calculated by dividing the predicted hepatic clearance by species blood flow (Q), where Q is 90, 55, and 21.7 mL/min/kg for mouse, rat and human, respectively

Question: Which “Extraction Ratio @ 1 μM” value does the source give for `CN(C)C(=O)Cn1ncc2ncc(-c3ccc(F)c(C(F)F)c3)nc21` [Example 10, 2-[6-[3-(Difluoromethyl)-4-fluoro-phenyl]pyrazolo[3,4-b]pyrazin-1-yl]-N,N-dimethyl-acetamide] here?
Answer: The value was 0.41.

Question: With `CN(C)C(=O)Cn1ncc2ncc(-c3ccc(Cl)c(C(F)F)c3)nc21` [Example 12, 2-[6-[4-Chloro-3-(difluoromethyl)phenyl]pyrazolo[3,4-b]pyrazin-1-yl]-N,N-dimethyl-acetamide] as the compound, how does the “Extraction Ratio @ 1 μM” value read?
Answer: Its value is 0.54.

Question: For `O=C(Cn1nc(F)c2ncc(-c3ccc(F)c(C(F)F)c3)nc21)N1CCC1` [Example 25, 1-(Azetidin-1-yl)-2-[6-[3-(difluoromethyl)-4-fluoro-phenyl]-3-fluoro-pyrazolo[3,4-b]pyrazin-1-yl]ethanone], which “Extraction Ratio @ 1 μM” value is on record?
Answer: Its value is 0.41.

Question: For `O=C(Cn1ncc2ncc(-c3ccc(F)c(OC(F)F)c3)nc21)N1CCC1` [Example 28, 1-(Azetidin-1-yl)-2-[6-[3-(difluoromethoxy)-4-fluoro-phenyl]pyrazolo[3,4-b]pyrazin-1-yl]ethanone], which “Extraction Ratio @ 1 μM” value is on record?
Answer: Its value is 0.45.

Question: Which “Extraction Ratio @ 1 μM” value does the source give for `O=C(Cn1ncc2ncc(-c3ccc(F)c(OC(F)F)c3)nc21)N1CC(F)C1` [Example 37, 2-[6-[3-(Difluoromethoxy)-4-fluoro-phenyl]pyrazolo[3,4-b]pyrazin-1-yl]-1-(3-fluoroazetidin-1-yl)ethanone] here?
Answer: Its value is 0.46.
